Laboratory results taken from patent US7605137B2, “Combination therapy comprising cloretazine” (priority 2004, dated 2009).
Entries after “also recorded” stand apart in the source; their conditions may differ. Like-named read-outs stand apart in the source and are kept apart here.

Key:
L1210 leukemia [1] = test: In vivo antitumor activity of VNP40101M and fludarabine on ip L1210 leukemia (3×10^6 cells), survival; parameters: species or system CD2F1 mice; settings: 3×10^6 L1210 cells ip; for Long-term Survivors (%): survival more than 60 days
Method: Eighty Female Balb/c×DBA/2 (CD2F1) mice are inoculated intraperitoneally (ip) on day 0 with 3×10^6 L1210 cells in 0.2 mL phosphate-buffered-saline (PBS). The mice are randomly divided into 6 groups; each group consists of 10 mice. The animals are untreated or treated with a single bolus dose of VNP40101M at 5, or 10 mg/kg, ip, on day 1 with or without fludarabine (70 mg/kg, ip) on multiple days between days 1 to 9. During the experiments, mice are observed daily for survival. It is determined that mice that survive for more than 60 days after inoculation of L1210 cells might be regarded as long-term survivors. Kaplan-Meier plots are generated, and survival time of animals is analyzed using student T-test. Significance is defined as P<0.05.

L1210 leukemia [2] = test: In vivo antitumor activity of VNP40101M and AraC on ip L1210 leukemia (1×10^6 cells), survival; parameters: species or system CD2F1 mice; settings: 1×10^6 L1210 cells ip; for Long-term Survivors (%): survival more than 60 days
Method: Eighty Female Balb/c×DBA/2 (CD2F1) mice were inoculated intraperitoneally (ip) on day 0 with 1×10^6 L1210 cells in 0.2 mL phosphate-buffered-saline (PBS). The mice were randomly divided into 6 groups; each group consisted of 10 mice. The animals were untreated or treated with a single bolus dose of VNP40101M at 5, or 10 mg/kg, ip, on day 1 with or without AraC (50 mg/kg, ip) on days 1, 3, 5, 7, and 9. Daring the experiments, mice were observed daily for survival. It was determined that mice that survive for more than 60 days after inoculation of L1210 cells might be regarded as long-term survivors. Kaplan-Meier plots were generated, and survival time of animals was analyzed using student T-test. Significance was defined as P<0.05.

L1210 leukemia [3] = test: In vitro cytotoxicity of VNP40101M and AraC, cell viability assay (mitochondrial oxidoreductase activity); assay type: cell-based, murine; settings: AraC and VNP40101M 0.75-6 uM
Method: The cytotoxicity of the combination of VNP40101M and Arac on L1210 leukemia was examined using a cell viability assay. Cells were exposed to VNP40101M, alone or in combination with various concentrations of AraC. After 72 hours, the remaining viable cells were quantified by measuring mitochondrial oxidoreductase activity. Concentrations of AraC and VNP40101M used were between 0.75 and 6 uM. Dose-effect analyses (combination index) showing combination effects of VNP40101M and AraC were analyzed.

[4] = system: L1210 leukemia (10^6 tumor cells) resistant to BCNU, cyclophosphamide, or melphalan; settings: cited from earlier work
human U251 glioma = settings: 10 mg/kg q2d×11 or 20 mg/kg q4d×6 IP; tumors staged to ~300 mg; cited from earlier work
[5] = system: murine M109 lung carcinoma; settings: cited from earlier work
B16F10 melanoma = settings: weekly IP, 10-60 mg/kg; cited from earlier work
[6] = system: human HTB177 lung (H460) carcinoma; settings: weekly IP, 10-60 mg/kg; cited from earlier work
[7] = system: human WiDr colon carcinoma; settings: weekly IP, 10-60 mg/kg; cited from earlier work
[8] = system: intra-cranially implanted L1210 leukemia; settings: cited from earlier work
[9] = cited from earlier work
[10] = cited from earlier work; remark: listed apart in the source
[11] = cited from earlier work; remark: listed apart in the source
[12] = cited from earlier work; remark: listed apart in the source
[13] = system: advanced hematologic malignancies; settings: cited from earlier work
[14] = VNP40101M 5 mg/kg ip single bolus day 1
[15] = VNP40101M 10 mg/kg ip single bolus day 1
[16] = single dose 80-100 mg/kg IP, tumor-bearing mice

Nc1nc(F)nc2c1ncn2[C@@H]1O[C@H](CO)[C@@H](O)[C@@H]1O [Fluda, Fludarabine, reference compound]
Long-term Survivors (%) (L1210 leukemia [1]; fludarabine 70 mg/kg ip multiple days between days 1 to 9): 0%
Time to death of all animals (L1210 leukemia [1]; fludarabine treatment control, 70 mg/kg ip): ≤ 30 days

Nc1ccn([C@@H]2O[C@H](CO)[C@@H](O)[C@@H]2O)c(=O)n1 [AraC, Cytarabine, reference compound]
Long-term Survivors (%) (L1210 leukemia [2]; AraC 50 mg/kg ip days 1, 3, 5, 7, 9): 0%
Time to death of all animals (L1210 leukemia [2]; AraC treatment control, 50 mg/kg ip days 1, 3, 5, 7, 9): ≤ 30 days

CNC(=O)N(N(CCCl)S(C)(=O)=O)S(C)(=O)=O [VNP40101M, 1,2-Bis(methylsulfonyl)-1-(2-chloroethyl)-2-(methylaminocarbonyl) hydrazine]
Combination effect with AraC on L1210 leukemia (L1210 leukemia [3]): worked synergistically with AraC
Long-term Survivors (%) (L1210 leukemia [2]; [14]): 50%
Long-term Survivors (%) (L1210 leukemia [2]; [15]): 90%
Long-term Survivors (%) (L1210 leukemia [1]; [14]): 0%
Long-term Survivors (%) (L1210 leukemia [1]; [15]): 40%
Increase in life span compared to control mice ([4]; 6 mg/kg/d IP daily for 6 days (total dose 36 mg/kg)): 333%
Cure ([4]; 12-18 mg/kg/d IP daily for 6 days (total doses 72-108 mg/kg)): 100 % of animals
Delayed toxic deaths ([4]; d×6 schedule, total doses up to 108 mg/kg): not observed
Myelosuppression at doses producing long-term survival ([4]; non-tumor-bearing mice): only modestly myelosuppressive
Time of toxic deaths after treatment [4, 16]: > 50 days
Toxicity of higher single doses [4, 16]: signs of a wasting condition and death in some animals; also recorded: signs of a wasting condition and deaths
Cure (survival ≧60 days) ([4]; single dose IP 24 hours after tumor inoculation, 20-60 mg/kg (60-180 mg/m^2)): 100 % of mice
Tumor response (human U251 glioma): complete regressions
Tumor growth ([5]; 10 mg/kg q2d×10 or 20 mg/kg q4d×5 IP, tumors staged to ~150 mg): delayed tumor growth
Delay of time to reach 1 gram ([5]; 20 mg/kg q4d×5 IP): 14 days
Tumor growth (B16F10 melanoma): significant delays in tumor growth
Tumor growth [6]: significant delays in tumor growth
Tumor growth [7]: significant delays in tumor growth
Anti-tumor activity against intra-cranially implanted L1210 leukemia ([8]; IP administration): Substantial anti-tumor activity
Crossing the blood brain barrier ([8]; inferred from activity against intra-cranially implanted leukemia): good penetration through the blood-brain barrier; also recorded: effective in crossing the blood brain barrier
Cell kill of leukemia cells implanted intracranially ([8]; leukemia cells implanted intracranially): > 6.54 log cell kill
White blood cell count ([9]; 60 mg/kg, by day 4): approximately 25 % of baseline
White blood cell count ([9]; 80 mg/kg, by day 4): ~15 % of baseline
WBC recovery ([9]; 60-80 mg/kg): full recovery by day 21
White blood cell count ([9]; single IP dose 40 mg/kg (120 mg/m^2)): 50 % of baseline
Clinical signs or symptoms ([10]; 3 mg/kg (18 mg/m^2) IV d×5, day 15): no clinical signs or symptoms
Rats with lung findings ([10]; 3 mg/kg IV d×5, day 29): 2/10
Microscopic findings (lung) ([10]; 3 mg/kg IV d×5): alveolar edema, congestion, alveolar histiocytosis, and vascular thrombi
Gross necropsy findings ([10]; 10 mg/kg (60 mg/m^2) d×5, day 15): few significant gross necropsy findings
Effects on serum chemistries ([10]; 10 mg/kg dose group, day 29): decreases in total protein and albumin
Animals with thoracic cavity fluid ([10]; 10 mg/kg d×5, sacrificed on day 29): approximately 50 % of animals
Animals with thoracic cavity fluid ([10]; 10 mg/kg d×5, sacrificed on days 30/31): 6/6
Myelosuppression ([10]; doses as high as 10 mg/kg d×5): not observed
Clinical signs and symptoms ([11]; 1 mg/kg (20 mg/m^2) IV d×5): minimal clinical signs and symptoms
Leukopenia ([11]; 1 mg/kg IV d×5, recovered to baseline by day 15): mild leukopenia on day 8
Leukopenia ([11]; 3 mg/kg IV d×5): marked leukopenia by day 8
Clinical signs ([11]; 3 mg/kg IV d×5, sacrifice on day 8): marked clinical signs
Tolerability ([11]; single IV doses 1 and 3 mg/kg, at least 21 days of observation): well-tolerated
Clinical signs ([11]; single IV doses 10 and 30 mg/kg (200 and 600 mg/m^2)): marked clinical signs
Dose-limiting non-hematologic toxicities ([12]; 3-305 mg/m^2): No dose-limiting non-hematologic toxicities were observed
Maximum tolerated dose (MTD) ([12]; IV infusion over 15-30 minutes every 4-6 weeks): 305 mg/m^2
Platelet nadir ([12]; MTD 305 mg/m^2): 25 to 33 days
Patients with grade 3 thrombocytopenia ([12]; among seven patients treated at the MTD (305 mg/m^2)): six
Recovery of hematologic toxicities to ≦ grade 1 ([12]; human, in vivo): 32-45 days
Patients with ≧grade 2 granulocytopenia ([12]; patients treated at the MTD (305 mg/m^2)): Five
Clinical response ([13]; 220 mg/m^2, heavily pre-treated patient with AML): substantial clearing of marrow blasts
Clinical response ([13]; 300 mg/m^2 single course, one previously untreated patient with high-risk myelodysplasia): complete response by day 28
Clinical response ([13]; 532 mg/M^2, patient with AML, by day 28): reduction in marrow blasts
Duration of prolonged marrow aplasia ([13]; 708 mg/m^2, one of seven patients): > 80 days
Peripheral blood blasts ([13]; all dose levels (220-708 mg/m^2)): reduced peripheral blood blasts at least transiently in most patients
Infusion-related reaction ([13]; doses ≧400 mg/m2): transient infusion-related syndrome
Dose-limiting non-hematologic toxicities ([13]; through the dose of 708 mg/m^2): no dose-limiting non-hematologic toxicities were observed
